This is an account of results in patent US12391697B2, “Condensed bi-heterocycles as inhibiting agents for Bruton's tyrosine kinase” (BIOGEN MA INC., priority 2019, dated 2025).

Counter-ions that a name gives are not always drawn. A value given as a limit tells only on which side of the number the result lay.

A word on the IC50: it is the concentration needed to halve the response being measured.

BTK, sequence (Q06187 whole entry): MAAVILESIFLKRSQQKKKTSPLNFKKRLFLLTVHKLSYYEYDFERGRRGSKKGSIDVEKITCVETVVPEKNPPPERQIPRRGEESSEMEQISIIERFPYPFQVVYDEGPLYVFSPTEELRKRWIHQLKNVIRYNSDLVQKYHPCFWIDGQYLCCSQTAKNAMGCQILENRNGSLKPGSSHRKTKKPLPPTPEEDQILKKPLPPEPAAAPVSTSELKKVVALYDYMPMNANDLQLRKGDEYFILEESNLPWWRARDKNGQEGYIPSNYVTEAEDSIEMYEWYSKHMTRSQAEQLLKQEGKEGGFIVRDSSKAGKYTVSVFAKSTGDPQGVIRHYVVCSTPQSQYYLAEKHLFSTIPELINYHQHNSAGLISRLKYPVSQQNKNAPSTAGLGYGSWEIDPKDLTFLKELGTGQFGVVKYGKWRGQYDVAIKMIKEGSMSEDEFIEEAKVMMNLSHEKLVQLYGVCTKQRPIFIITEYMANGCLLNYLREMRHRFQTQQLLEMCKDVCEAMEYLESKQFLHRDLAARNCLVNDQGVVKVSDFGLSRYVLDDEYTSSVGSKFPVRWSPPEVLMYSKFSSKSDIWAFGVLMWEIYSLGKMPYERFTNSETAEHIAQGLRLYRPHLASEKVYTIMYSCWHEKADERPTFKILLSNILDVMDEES

The target in this test is BTK (Homo sapiens (Human), UniProt Q06187). The test is described as follows: In Vitro BTK Kinase Assay: Btk-PolyGAT-LS Assay. The format is biochemical. The settings on record: active BTK enzyme 0.25 nM, ATP 10 μM, polyGAT 100 nM, 30 minutes. As for the experimental part:
In Vitro BTK Kinase Assay: Btk-PolyGAT-LS Assay
The purpose of the BTK in vitro assay is to determine compound potency against BTK through the measurement of IC50. […] The BTK kinase reaction was done in a black 96 well plate (costar 3694). For a typical assay, a […] aliquot of a ATP/peptide master mix (final concentration; ATP 10 μM, polyGAT 100 nM) in kinase buffer (10 mM Tris-HCl pH 7.5, 10 mM MgCl2, 200 μM […], 5 mM DTT, 0.01% Triton X-100, and 0.2 mg/ml casein) is added to each well. Next, […] of a 4-fold, 40× compound titration in 100% DMSO solvent is added, followed by adding 15 uL of BTK enzyme mix in 1× kinase buffer (with a final concentration of 0.25 nM). The assay is incubated for 30 minutes before being stopped with […] of a 50 mM EDTA solution. Aliquots (5 uL) of the kinase reaction are transferred to a low volume white 384 well plate (Corning 3674), and […] of a 2× detection buffer (Invitrogen PV3574, with 4 nM Tb-PY20 antibody, Invitrogen PV3552) is added. The plate is covered and incubated for 45 minutes at room temperature. Time resolved fluorescence (TRF) on Molecular Devices M5 (332 nm excitation; 488 nm emission; 518 nm fluorescein emission) is measured.
Regarding `CC(C)(C)c1cc(C(=O)NCc2cc(F)c(-c3ncnn4cccc34)cc2Cl)no1` [Example 135], the IC50 was > 10 nM.

As for `Cn1cc(-c2cc3c(-c4ccc(CNC(=O)c5nc(C(C)(C)C)no5)c(C(F)F)c4)ncnn3c2)cn1` [Example 190], the half-maximal inhibitory concentration (IC50) was ≤ 1 nM.

With `Cc1cc(-c2ncnn3cc(N4CCO[C@H](C)C4)cc23)ccc1CNC(=O)c1nc(C(C)(C)C)no1` (single isomer, unassigned) [Example 137], the IC50 was ≤ 1 nM.

As for `Cc1cc(-c2ncnn3cc(-c4cnn(C)c4)cc23)ccc1CNC(=O)c1nnc(C(C)(C)C(F)F)o1` [Example 3, 5-(1,1-difluoro-2-methylpropan-2-yl)-N-(2-methyl-4-(6-(1-methyl-1H-pyrazol-4-yl)pyrrolo[2,1-f][1,2,4]triazin-4-yl)benzyl)-1,3,4-oxadiazole-2-carboxamide], the IC50 is ≤ 1 nM.

Take `Cc1cc(-c2ncnn3cc(-c4cnn(C)c4C)cc23)ccc1CNC(=O)c1coc(C(C)(C)C)n1` [Example 130]: the IC50 is ≤ 1 nM.

Consider `Cn1cc(-c2cc3c(-c4ccc(CNC(=O)c5noc(C(C)(C)C)n5)c(CC(F)F)c4F)ncnn3c2)cn1` [Example 233], for which the IC50 is ≤ 1 nM.

Consider `Cc1cc(-c2ncnn3cc(-c4cnn(C)c4)cc23)ccc1CNC(=O)c1nnn(C(C)(C)C)n1` [Example 113], for which the IC50 was ≤ 1 nM.

Consider `CC(C)(C)n1nnc(C(=O)NCc2cc(F)c(-c3ncnn4cccc34)cc2Cl)n1` [Example 136], for which the half-inhibitory concentration (IC50) is > 10 nM.

As for `Cc1c(CNC(=O)c2cn(C(C)(C)C)nn2)ccc(-c2ncnn3cc(N4CCOCC4)cc23)c1F` [Example 87], the half-inhibitory concentration (IC50) was ≤ 1 nM.

Take `Cc1c(CNC(=O)c2noc(C(C)(C)C)n2)cc(F)c(-c2ncnn3cccc23)c1F` [Example 63, 5-(tert-butyl)-N-(3,5-difluoro-2-methyl-4-(pyrrolo[2,1-f][1,2,4]triazin-4-yl)benzyl)-1,2,4-oxadiazole-3-carboxamide hydrochloride]: the IC50 lay within 1 to 10 nM.

As to `Cc1cc(-c2ncnn3cc(N4CC(CO)(CO)C4)cc23)ccc1CNC(=O)c1noc(C(C)(C)C)n1` [Example 73, N-(4-(6-(3,3-bis(hydroxymethyl)azetidin-1-yl)pyrrolo[2,1-f][1,2,4]triazin-4-yl)-2-methylbenzyl)-5-(tert-butyl)-1,2,4-oxadiazole-3-carboxamide], the half-inhibitory concentration (IC50) was ≤ 1 nM.

`C[C@@H](NC(=O)c1nnc(C(C)(C)C)o1)c1ccc(-c2ncnn3cc(N4CCOCC4)cc23)cc1Cl` [Example 204]: the IC50 is 1 to 10 nM.

As to `C=CC(=O)n1cc(-c2cc3c(-c4ccc(CNC(=O)c5noc(C(C)(C)C)n5)c(C)c4)ncnn3c2)cn1` [Example 59, N-(4-(6-(1-acryloyl-1H-pyrazol-4-yl)pyrrolo[2,1-f][1,2,4]triazin-4-yl)-2-methylbenzyl)-5-(tert-butyl)-1,2,4-oxadiazole-3-carboxamide], the 50% inhibitory concentration (IC50) was ≤ 1 nM.

`Cc1c(CNC(=O)c2noc(C3(C)CC3)n2)ccc(-c2ncnn3cc(-c4cnn(C)c4)cc23)c1F` [Example 42, N-(3-fluoro-2-methyl-4-(6-(1-methyl-1H-pyrazol-4-yl)pyrrolo[2,1-f][1,2,4]triazin-4-yl)benzyl)-5-(1-methylcyclopropyl)-1,2,4-oxadiazole-3-carboxamide hydrochloride]: the IC50 was ≤ 1 nM.

Consider `Cc1cc(-c2ncnn3cc(C(=O)N(C)C)cc23)ccc1CNC(=O)c1noc(C(C)(C)C)n1` [Example 67, 5-(tert-butyl)-N-(4-(6-(dimethylcarbamoyl)pyrrolo[2,1-f][1,2,4]triazin-4-yl)-2-methylbenzyl)-1,2,4-oxadiazole-3-carboxamide hydrochloride], for which the half-inhibitory concentration (IC50) is ≤ 1 nM.

As to `Cc1cc(-c2ncnn3cc(-c4cn(C)nc4C)cc23)ccc1CNC(=O)c1noc(C(C)(C)C)n1` [Example 108], the IC50 was ≤ 1 nM.

Take `CC(C)(C)c1noc(C(=O)NCc2ccc(-c3ncnn4cccc34)c(F)c2C2CC2)n1` [Example 153]: the half-inhibitory concentration (IC50) was 1 to 10 nM.

`CC(C)(C)c1nc(C(=O)NCc2ccc(-c3ncnn4cccc34)cc2Cl)no1` [Example 178] showed an IC50 of 1 to 10 nM.

Take `CC(C)(C)c1nnc(C(=O)NCc2ccc(-c3ncnn4cc(N5CCOCC5)cc34)cc2C(F)F)o1` [Example 193]: the half-inhibitory concentration (IC50) lay in the range of 1 to 10 nM.

`CC(C)(C)c1nnc(C(=O)NCc2ccc(-c3ncnn4cc(N5CCOCC5)cc34)c(F)c2C2CC2)o1` [Example 163] came in with an IC50 of 1 to 10 nM.

With `Cc1c(CNC(=O)c2nc(C(C)(C)C)no2)ccc(-c2ccnc3cc(-c4cnn(C)c4)nn23)c1F` [Example 83], the IC50 is ≤ 1 nM.

As for `Cc1cc(-c2ncnn3cc(-c4cnn(C)c4)cc23)ccc1CNC(=O)c1ccn(C(C)(C)C)n1` [Example 168], the 50% inhibitory concentration (IC50) is ≤ 1 nM.

As for `COc1c(CNC(=O)c2ccn(C(C)(C)C)n2)ccc(-c2ncnn3cc(N4CCOCC4)cc23)c1F` [Example 202], the IC50 fell in the range of 1 to 10 nM.

In turn, `Cc1cc(-c2ncnn3cc(N4CCOCC4C)cc23)ccc1CNC(=O)c1noc(C(C)(C)C)n1` (centres unmarked) [Example 229] yielded an IC50 of 1 to 10 nM.

As to `COc1c(CNC(=O)c2noc(C(C)(C)C)n2)ccc(-c2ncnn3cc(N4CCOCC4)cc23)c1F` [Example 223], the half-inhibitory concentration (IC50) is ≤ 1 nM.

On to `Cc1cc(-c2ncnn3cccc23)ccc1CNC(=O)c1coc(C(C)(F)F)n1` [Example 20, 2-(1,1-difluoroethyl)-N-(2-methyl-4-(pyrrolo[2,1-f][1,2,4]triazin-4-yl)benzyl)oxazole-4-carboxamide trifluoroacetate], for which the half-inhibitory concentration (IC50) was > 10 nM.

Take `Cc1cc(-c2ncnn3cc(N4CCOCC4)cc23)ccc1CNC(=O)c1nc(C(C)(C)C)no1` [Example 105]: the IC50 was ≤ 1 nM.

`Cc1cc(-c2ncnn3cc(N4CCOC(C(C)C)C4)cc23)ccc1CNC(=O)c1nc(C(C)(C)C)no1` (centres unmarked) [Example 100]: the 50% inhibitory concentration (IC50) was 1 to 10 nM.

Turning to `Cc1cc(-c2ncnn3cc(N4CCO[C@H](C)C4)cc23)ccc1CNC(=O)c1nnn(C(C)(C)C)n1` (single isomer, unassigned) [Example 139], the IC50 was ≤ 1 nM.

Turning to `Cc1cc(-c2cc3c(-c4ccc(CNC(=O)c5nc(C(C)(C)C)no5)c(C)c4)ncnn3c2)cnn1` [Example 171], the IC50 is ≤ 1 nM.

`Cc1c(CNC(=O)c2cnn(C(C)(C)C)c2)ccc(-c2ncnn3cc(N4CCOCC4)cc23)c1F` [Example 88]: the IC50 is ≤ 1 nM.

Take `Cc1cc(-c2ncnn3cc(N4CCOC(C)(C)C4)cc23)ccc1CNC(=O)c1noc(C(C)(C)C)n1` [Example 78, 5-(tert-butyl)-N-(4-(6-(2,2-dimethylmorpholino)pyrrolo[2,1-f][1,2,4]triazin-4-yl)-2-methylbenzyl)-1,2,4-oxadiazole-3-carboxamide hydrochloride]: the 50% inhibitory concentration (IC50) was ≤ 1 nM.

On to `CC(C)(C)n1cc(C(=O)NCc2ccc(-c3ncnn4cc(N5CCOCC5)cc34)cc2C(F)(F)F)nn1` [Example 187], for which the IC50 was ≤ 1 nM.

For `CC(C)(C)c1coc(C(=O)NCc2ccc(-c3ncnn4cc(N5CCOCC5)cc34)cc2C(F)F)n1` [Example 222], the IC50 fell in the range of 1 to 10 nM.

Consider `Cc1cc(-c2ncnn3cc(N4CCN(C)C(=O)C4)cc23)ccc1CNC(=O)c1noc(C(C)(C)C)n1` [Example 177], for which the IC50 was ≤ 1 nM.

Take `Cc1cc(-c2ncnn3cc(-c4cnn(C5COC5)c4)cc23)ccc1CNC(=O)c1noc(C(C)(C)C)n1` [Example 104]: the half-maximal inhibitory concentration (IC50) is ≤ 1 nM.

On to `COc1cc(-c2ncnn3cc(-c4cnn(C)c4)cc23)ccc1CNC(=O)c1cn(C(C)(C)C)nn1` [Example 188], for which the IC50 lay in the range of 1 to 10 nM.

Consider `Cc1cc(-c2ncnn3cc(-c4cnn(C)c4)cc23)ccc1CNC(=O)c1cn(C(C)(C)C)nn1` [Example 166], for which the concentration for half-maximal inhibition (IC50) is ≤ 1 nM.

Take `Cc1cc2c(-c3ccc(CNC(=O)c4noc(C(C)(C)C)n4)c(C)c3)ncnn2c1` [Example 55]: the half-inhibitory concentration (IC50) was ≤ 1 nM.

Take `Cc1cc(-c2ncnn3cc(N4CCO[C@@H](C)C4)cc23)ccc1CNC(=O)c1noc(C(C)(C)C)n1` (single isomer, unassigned) [Example 29]: the 50% inhibitory concentration (IC50) was ≤ 1 nM.

In turn, `Cn1cc(-c2cc3c(-c4ccc(CNC(=O)c5cn(C(C)(C)C)nn5)c(C(F)F)c4F)ncnn3c2)cn1` [Example 195] yielded an IC50 of 1 to 10 nM.

As to `Cc1cc(-c2ncnn3cc(CC4CCOCC4)cc23)ccc1CNC(=O)c1noc(C(C)(C)C)n1` [Example 94], the IC50 was > 10 nM.

Regarding `CC(C)(C)c1nc(C(=O)NCc2cc(F)c(-c3ncnn4cccc34)cc2Cl)co1` [Example 134], the IC50 is > 10 nM.

`Cc1c(CNC(=O)c2ccn(C(C)(C)C)n2)ccc(-c2ncnn3cc(N4CCOCC4)cc23)c1F` [Example 89] showed an IC50 of 1 to 10 nM.

Regarding `Cc1cc(-c2ncnn3cc(-c4cnn(C)c4C)cc23)ccc1CNC(=O)c1noc(C(C)(C)C)n1` [Example 109], the concentration for half-maximal inhibition (IC50) is ≤ 1 nM.

Consider `Cc1cc(-c2ncnn3cc(-c4ccc(C#N)cc4)cc23)ccc1CNC(=O)c1noc(C(C)(C)C)n1` [Example 225], for which the IC50 was ≤ 1 nM.

Turning to `Cc1cc(-c2ncnn3cc(-c4ncccn4)cc23)ccc1CNC(=O)c1noc(C(C)(C)C)n1` [Example 68, 5-(tert-butyl)-N-(2-methyl-4-(6-(pyrimidin-2-yl)pyrrolo[2,1-f][1,2,4]triazin-4-yl)benzyl)-1,2,4-oxadiazole-3-carboxamide hydrochloride], the IC50 is ≤ 1 nM.
